One data set deals with full-length HEV p6 clone. The data set is described as follows: Full-length p6 clone, ORF2 immunofluorescence in Huh7.5. The format is cell-based, Hepatitis E virus. The conditions noted are these: silvestrol 10 nM or RBV, 42 h, added 4 h after transfection.
Data set [1] relates to HEV Sar55/S17 replicon (gt1). Briefly: HEV Sar55/S17 subgenomic replicon replication in Huh7.5. (In antiviral work, replicon cells carry a viral genome segment that copies itself.)
Data set [2] concerns HCV JFH1 subgenomic replicon. Briefly: HCV JFH1 subgenomic replicon replication in Huh7.5. The conditions noted are these: for pIC50 / IC90: Hepatitis C virus; for pIC50: read-out: IC50 (CI); for IC90: read-out: IC90 (CI).
The test system of a further data set is different HEV constructs. Briefly: Different HEV subgenomic replicons in Huh7.5. The settings on record: Hepatitis E virus.
Data set [3] deals with HEVp6 replicon (Kernow-C1 p6, gt3). The data set is described as follows: HEVp6 subgenomic replicon. The conditions noted are these: for IC90: read-out: IC90 (CI).
The nature of data set [4]: MTT cell viability assay in transfected Huh7.5. The format is cell-based, human. The conditions noted are these: human, transfected Huh7.5 cells, CC50 (CI), 42 h treatment, Huh7.5, CI 95%. Background: Tetrazolium dyes change colour on reduction, which living cells bring about.
Data set [5] has as its system Huh7.5 cells. The data set is described as follows: MTT cell viability assay in transfected Huh7.5. It counts as cell-based, human.
Data set [6] deals with Huh7.5 cells. The data set is described as follows: Trypan blue exclusion viable cell counting. It counts as cell-based, human. The conditions noted are these: silvestrol 10 nM and 100 nM, 24 h, vs untreated cells.
In the next data set the test system is HepG2/C3A cells. Briefly: MTT cell viability in HEVCC infection assay. The format is cell-based, human. The conditions noted are these: silvestrol 10, 20, 50 nM, all treatment setups.
For data set [7], the system named is hepatocyte-like cells (HLCs). Briefly: WST cell viability in hepatocyte-like cells. The settings on record: 10 nM silvestrol for 24 h. The format is cell-based, human.
The subject of the next data set is gt1 HEV (strain Sar-55). The format is in vivo. The settings on record: 0.3 mg/kg daily intraperitoneal, ten or six days, first days of treatment.
For data set [8] the following is noted: 0.3 mg/kg daily intraperitoneal, monitored period.
The next data set has as its system Ebola virus. The conditions noted are these: read-out: IC50 Ebola virus replication; cited from earlier work.
Setting [9] is: Hepatitis E virus, GT1, Huh7.5, 24 h, read-out: IC50 (CI), 24 h treatment, Huh7.5, CI 95%.
Setting [10] is: Hepatitis E virus, GT1, Huh7.5, 42 h, read-out: IC50 (CI), 42 h treatment, Huh7.5, CI 95%.
Where [11] appears, read: Hepatitis E virus, GT3, Huh7.5, 24 h, read-out: IC50 (CI), 24 h treatment, Huh7.5, CI 95%.
[12] abbreviates: Hepatitis E virus, GT3, Huh7.5, 24 h.
[13] abbreviates: Hepatitis E virus, GT3, Huh7.5, 42 h, read-out: IC50 (CI), 42 h treatment, Huh7.5, CI 95%.
[14] abbreviates: Hepatitis E virus, GT3, Huh7.5, 42 h.

pIC50: −log10 of the molar value. Like-named read-outs stand apart in the source and are kept apart here.

For the molecule `NC(=O)c1ncn([C@@H]2O[C@H](CO)[C@@H](O)[C@H]2O)n1` [Ribavirin], the “ORF2 positive cells (immunofluorescence)” value with full-length HEV p6 clone is on record as “highly reduced”. Besides, the negative logarithm of the IC50 (pIC50) (in general, the IC50 on a negative log10 scale, so that one unit is a factor of ten) in data set [1] (setting [9]) was 4.37; in data set [1] (setting [10]), 4.52; in data set [1] (read-out: IC50 (CI), 24 h treatment, Huh7.5, CI 95%) it was 4.37; in data set [2] (Huh7.5, 24 h), 4.91; in data set [2] (Huh7.5, 42 h), 4.20; in the data set on different HEV constructs (GT1, Huh7.5, 24 h, read-out: IC50 HEV replication) it was 4.92 to 5.10. For the same molecule, the pIC50 in data set [3] (setting [11]) was 5.09; in [3] (setting [13]), 5.16. For the same molecule, the 90% effect concentration (IC90) (commonly the point of the concentration-response curve where the effect stands at 90%) in [2] (Huh7.5, 24 h) turned out to be 128000 nM; in data set [3] (setting [12]), 244000 nM; in data set [3] (setting [14]) it was 50400 nM.
For the molecule `COC(=O)[C@H]1[C@@H](O)[C@@]2(O)c3c(OC)cc(O[C@@H]4O[C@@H]([C@H](O)CO)CO[C@H]4OC)cc3O[C@@]2(c2ccc(OC)cc2)[C@@H]1c1ccccc1` [Silvestrol, silvestrol], half-maximal cytotoxicity in data set [4] (CC50 at 42 h) was put at 24.8 nM. Besides, the “cytotoxic concentration 50 (CC50)” value with Huh7.5 cells [5] (24 h treatment, Huh7.5) is “did not reach a cytotoxic concentration 50 (CC50)”. In the data set on Huh7.5 cells [5] (read-out: CC50 (CI), 42 h treatment, Huh7.5, CI 95%), the CC50 (usually the concentration at which the toxic effect on the cells reaches its halfway point) turned out to be 24.8 nM. The “viable cells (trypan blue cell counting)” value in the data set on Huh7.5 cells [6] is “no significant reductions”. For the same molecule, in the data set on full-length HEV p6 clone, the “ORF2 positive cells (immunofluorescence)” value is recorded as “highly reduced”. Moreover, the “cell viability (MTT)” value with HepG2/C3A cells is on record as “not reduced”. In addition, the “cytotoxicity (WST assay) in HLCs” value in data set [7] is listed as “without cytotoxicity”. The “HEV RNA in the feces” value in the data set on gt1 HEV (strain Sar-55) is “rapid decline”. The body weight entry in [8] is listed as “No changes”. The pIC50 in the data set on Ebola virus was greater than 9.00; in [1] (setting [9]), 8.18; in data set [1] (setting [10]), 8.50; in data set [2] (Huh7.5, 24 h), 7.61; in data set [2] (Huh7.5, 42 h), 7.15; in the data set on different HEV constructs (Huh7.5, 24 h, read-out: IC50 for the different HEV constructs), 8.18 to 8.40. Also, the pIC50 is 8.35 in [3] (setting [11]); 8.54 in data set [3] (setting [13]); 8.54 in [3] (read-out: IC50 (CI), 42 h treatment, Huh7.5, CI 95%). Besides, the IC90 in data set [1] (Hepatitis E virus, GT1, Huh7.5, 42 h, read-out: IC90 (CI)) was found to be 52.8 nM; in data set [2] (Huh7.5, 24 h) it was 128 nM; in [2] (Huh7.5, 42 h), 518 nM; in data set [3] (setting [12]) it was 64.7 nM; in data set [3] (setting [14]), 27.3 nM. Also, the “susceptibility of HCV reference replicon compared with HEV” value in data set [2] (Huh7.5, 24 h) is reported as “less susceptible”. Moreover, the selectivity index entry in data set [3] (42 h, p6 strain, CC50/IC50) was “about 8.6”.

The record behind these values is publication PMC7113770 (Antiviral Research, 2018).
